The test deals with c-kit WT (Homo sapiens (Human), UniProt P10721). In words: Proliferation assay (CellTiter-Blue) on BaF3 Kit WT cell line. Type of test: cell-based. The settings on record: BaF3 Kit WT cell line (murine Ba/F3 expressing Human Kit WT, with murine SCF), 48 hours. The method, boiled down:
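Ba/F3 cells expressing human Kit WT, maintained in RPMI/10% FCS with 250 ng/ml murine SCF, were seeded at 2.10^4 cells/well and exposed to ½ serial dilutions (0–10 μM) for 48 h at 37° C. Viability was measured by CellTiter-Blue fluorescence (544Ex/590Em, 4 h) in triplicate as % of untreated proliferation.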
On the technique in general: Alamar Blue is a resazurin reagent that responds to reducing activity.

c-kit WT, sequence (P10721 26-976): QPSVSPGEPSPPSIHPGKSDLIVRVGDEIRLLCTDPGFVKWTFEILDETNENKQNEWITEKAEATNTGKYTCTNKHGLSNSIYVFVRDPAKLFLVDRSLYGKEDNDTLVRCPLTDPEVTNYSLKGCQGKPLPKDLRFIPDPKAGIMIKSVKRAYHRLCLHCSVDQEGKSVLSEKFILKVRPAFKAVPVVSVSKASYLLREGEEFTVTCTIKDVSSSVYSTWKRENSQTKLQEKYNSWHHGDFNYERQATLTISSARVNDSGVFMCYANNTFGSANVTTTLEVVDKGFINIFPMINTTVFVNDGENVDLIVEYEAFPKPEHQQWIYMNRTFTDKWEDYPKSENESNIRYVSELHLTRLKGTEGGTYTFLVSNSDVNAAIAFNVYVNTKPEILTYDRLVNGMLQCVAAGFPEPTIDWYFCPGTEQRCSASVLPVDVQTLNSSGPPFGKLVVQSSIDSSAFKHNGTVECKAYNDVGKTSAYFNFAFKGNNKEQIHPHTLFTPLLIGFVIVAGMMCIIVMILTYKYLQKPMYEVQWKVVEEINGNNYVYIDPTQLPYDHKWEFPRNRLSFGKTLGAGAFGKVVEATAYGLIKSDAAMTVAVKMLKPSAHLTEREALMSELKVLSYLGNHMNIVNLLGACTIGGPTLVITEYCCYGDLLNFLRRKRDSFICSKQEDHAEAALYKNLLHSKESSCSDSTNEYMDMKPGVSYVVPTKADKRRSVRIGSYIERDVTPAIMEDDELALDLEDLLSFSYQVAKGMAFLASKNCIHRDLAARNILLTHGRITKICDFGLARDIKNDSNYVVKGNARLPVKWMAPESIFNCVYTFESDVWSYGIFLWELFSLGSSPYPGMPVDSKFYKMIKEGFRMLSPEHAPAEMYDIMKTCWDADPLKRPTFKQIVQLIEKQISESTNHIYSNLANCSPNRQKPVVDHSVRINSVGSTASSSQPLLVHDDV

As a reminder, the IC50 is the concentration needed to halve the response being measured. `Cc1cc2nc(-c3cc(F)cc(C(F)(F)F)c3)[nH]c2cc1Nc1nc(-c2cccnc2)cs1` [Compound 058, [2-(3-Fluoro-5-trifluoromethyl-phenyl)-6-methyl-3H-benzoimidazol-5-yl]-(4-pyridin-3-yl-thiazol-2-yl)-amine]: the IC50 is ≤ 1000 nM. `Cc1cc2nc(-c3ccc(Cl)cc3)[nH]c2cc1Nc1nc(-c2cccnc2)cs1` [Compound 059, [2-(4-Chloro-phenyl)-6-methyl-1H-benzoimidazol-5-yl]-(4-pyridin-3-yl-thiazol-2-yl)-amine] returned an IC50 of 1000 to 10000 nM. Consider `Cc1cc2nc(-c3ccc(F)cc3)[nH]c2cc1Nc1nc(-c2cccnc2)cs1` [Compound 060, [2-(4-Fluoro-phenyl)-6-methyl-1H-benzoimidazol-5-yl]-(4-pyridin-3-yl-thiazol-2-yl)-amine], for which the IC50 is 1000 to 10000 nM. As for `Cc1cc2nc(-c3cccc(C(F)F)c3)[nH]c2cc1Nc1nc(-c2cncnc2)cs1` [Compound 061, [2-(3-Difluoromethyl-phenyl)-6-methyl-3H-benzoimidazol-5-yl]-(4-pyrimidin-5-yl-thiazol-2-yl)-amine], the figure is ≤ 1000 nM; as for `Cc1cc2nc(-c3cccc(C(F)(F)F)c3)[nH]c2cc1Nc1nc(-c2cncnc2)cs1` [Compound 062, [6-Methyl-2-(3-trifluoromethyl-phenyl)-3H-benzoimidazol-5-yl]-(4-pyrimidin-5-yl-thiazol-2-yl)-amine], ≤ 1000 nM; as for `Cc1cc2nc(-c3cccc(OC(F)(F)F)c3)[nH]c2cc1Nc1nc(-c2cncnc2)cs1` [Compound 063, [6-Methyl-2-(3-trifluoromethoxy-phenyl)-3H-benzoimidazol-5-yl]-(4-pyrimidin-5-yl-thiazol-2-yl)-amine], 1000 to 10000 nM. For `Cc1cc2nc(CN3CCOCC3)[nH]c2cc1Nc1nc(-c2cccnc2)cs1` [Compound 064, (6-Methyl-2-morpholin-4-ylmethyl-3H-benzoimidazol-5-yl)-(4-pyridin-3-yl-thiazol-2-yl)-amine], the IC50 fell in the range of 1000 to 10000 nM. As for `Cc1cc2nc(-c3ccc(CN4CCN(C)CC4)cc3)[nH]c2cc1Nc1nc(-c2cncnc2)cs1` [Compound 065, {6-Methyl-2-[4-(4-methyl-piperazin-1-ylmethyl)-phenyl]-3H-benzoimidazol-5-yl}-(4-pyrimidin-5-yl-thiazol-2-yl)-amine], the figure is 1000 to 10000 nM. With `Cc1cccc(-c2nc3cc(C)c(Nc4nc(-c5cncnc5)cs4)cc3[nH]2)c1` [Compound 066, (6-Methyl-2-m-tolyl-1H-benzoimidazol-5-yl)-(4-pyrimidin-5-yl-thiazol-2-yl)-amine] the figure was 1000 to 10000 nM; with `Cc1cc2nc(-c3ccc(C(F)(F)F)cc3)[nH]c2cc1Nc1nc(-c2cncnc2)cs1` [Compound 067, [6-Methyl-2-(4-trifluoromethyl-phenyl)-1H-benzoimidazol-5-yl]-(4-pyrimidin-5-yl-thiazol-2-yl)-amine], 1000 to 10000 nM. With `Cc1cc2nc(-c3cccc(Cl)c3)[nH]c2cc1Nc1nc(-c2cncnc2)cs1` [Compound 068, [2-(3-Chloro-phenyl)-6-methyl-1H-benzoimidazol-5-yl]-(4-pyrimidin-5-yl-thiazol-2-yl)-amine] the figure was 1000 to 10000 nM; with `Cc1cc2nc(-c3cccc(C(F)F)c3)[nH]c2cc1Nc1nc(-c2ccc(C#N)cc2)cs1` [Compound 069, 4-{2-[2-(3-Difluoromethyl-phenyl)-6-methyl-3H-benzoimidazol-5-ylamino]-thiazol-4-yl}-benzonitrile], ≤ 1000 nM; with `Cc1cc2nc(-c3cccc(C(F)(F)F)c3)[nH]c2cc1Nc1nc(-c2ccc(C#N)cc2)cs1` [Compound 070, 4-{2-[6-Methyl-2-(3-trifluoromethyl-phenyl)-3H-benzoimidazol-5-ylamino]-thiazol-4-yl}-benzonitrile], ≤ 1000 nM. Take `Cc1cc2nc(-c3cccc(C(F)F)c3)[nH]c2cc1Nc1nc(-c2ccc(C(N)=O)cc2)cs1` [Compound 071, 4-{2-[2-(3-Difluoromethyl-phenyl)-6-methyl-3H-benzoimidazol-5-ylamino]-thiazol-4-yl}-benzamide]: the IC50 is ≤ 1000 nM.

In the case of `Cc1cc2nc(-c3ccc(C(F)(F)F)cc3)[nH]c2cc1Nc1nc(-c2ccc(C(N)=O)cc2)cs1` [Compound 072, 4-{2-[6-Methyl-2-(4-trifluoromethyl-phenyl)-3H-benzoimidazol-5-ylamino]-thiazol-4-yl}-benzamide], the 50% inhibitory concentration (IC50) was ≤ 1000 nM. As for `Cc1cc2nc(-c3cccc(OC(F)(F)F)c3)[nH]c2cc1Nc1nc(-c2ccc(C(N)=O)cc2)cs1` [Compound 073, 4-{2-[6-Methyl-2-(3-trifluoromethoxy-phenyl)-3H-benzoimidazol-5-ylamino]-thiazol-4-yl}-benzamide], the figure is ≤ 1000 nM; as for `Cc1cccc(-c2nc3cc(C)c(Nc4nc(-c5ccc(C#N)cc5)cs4)cc3[nH]2)c1` [Compound 074, 4-[2-(6-Methyl-2-m-tolyl-3H-benzoimidazol-5-ylamino)-thiazol-4-yl]-benzonitrile], ≤ 1000 nM; as for `Cc1cc2nc(-c3cccc(OC(F)(F)F)c3)[nH]c2cc1Nc1nc(-c2ccc(C#N)cc2)cs1` [Compound 075, 4-{2-[6-Methyl-2-(3-trifluoromethoxy-phenyl)-3H-benzoimidazol-5-ylamino]-thiazol-4-yl}-benzonitrile], ≤ 1000 nM. With `Cc1cc2nc(-c3ccc(C(F)(F)F)cc3)[nH]c2cc1Nc1nc(-c2ccc(C#N)cc2)cs1` [Compound 076, 4-{2-[6-Methyl-2-(4-trifluoromethyl-phenyl)-3H-benzoimidazol-5-ylamino]-thiazol-4-yl}-benzonitrile] the figure was 1000 to 10000 nM; with `Cc1cc2nc(-c3cncn3C)[nH]c2cc1Nc1nc(-c2cccnc2)cs1` [Compound 077, [6-Methyl-2-(3-methyl-3H-imidazol-4-yl)-3H-benzoimidazol-5-yl]-(4-pyridin-3-yl-thiazol-2-yl)-amine], 1000 to 10000 nM; with `Cc1ccc(-c2nc3cc(C)c(Nc4nc(-c5cccnc5)cs4)cc3[nH]2)s1` [Compound 078, [6-Methyl-2-(5-methyl-thiophen-2-yl)-3H-benzoimidazol-5-yl]-(4-pyridin-3-yl-thiazol-2-yl)-amine], ≤ 1000 nM.

Turning to `Cc1ccc(-c2nc3cc(Nc4nc(-c5ccncc5)cs4)c(C)cc3[nH]2)s1` [Compound 079, [6-Methyl-2-(5-methyl-thiophen-2-yl)-1H-benzoimidazol-5-yl]-(4-pyridin-4-yl-thiazol-2-yl)-amine], the 50% inhibitory concentration (IC50) is ≤ 1000 nM. Take `Cc1cc2[nH]c(-c3cncn3C)nc2cc1Nc1nc(-c2ccncc2)cs1` [Compound 080, [6-Methyl-2-(3-methyl-3H-imidazol-4-yl)-1H-benzoimidazol-5-yl]-(4-pyridin-4-yl-thiazol-2-yl)-amine]: the concentration for half-maximal inhibition (IC50) lay within 1000 to 10000 nM. As for `Cc1cc2c(cc1Nc1nc(-c3ccncc3)cs1)nc(-c1cccc(C(F)F)c1)n2C` [Compound 081, [2-(3-Difluoromethyl-phenyl)-1,6-dimethyl-1H-benzoimidazol-5-yl]-(4-pyridin-4-yl-thiazol-2-yl)-amine], the figure is ≤ 1000 nM. In the case of `Cc1cc2c(cc1Nc1nc(-c3ccncc3)cs1)nc(-c1cccc(C(F)(F)F)c1)n2C` [Compound 082, [1,6-Dimethyl-2-(3-trifluoromethyl-phenyl)-1H-benzoimidazol-5-yl]-(4-pyridin-4-yl-thiazol-2-yl)-amine], the half-inhibitory concentration (IC50) was ≤ 1000 nM. With `Cc1cc2c(cc1Nc1nc(-c3ccncc3)cs1)nc(-c1cccc(OC(F)(F)F)c1)n2C` [Compound 083, [1,6-Dimethyl-2-(3-trifluoromethoxy-phenyl)-1H-benzoimidazol-5-yl]-(4-pyridin-4-yl-thiazol-2-yl)-amine] the figure was ≤ 1000 nM; with `Cc1cc2c(cc1Nc1nc(-c3cccnc3)cs1)nc(-c1cccc(C(F)F)c1)n2C` [Compound 084, [2-(3-Difluoromethyl-phenyl)-1,6-dimethyl-1H-benzoimidazol-5-yl]-(4-pyridin-3-yl-thiazol-2-yl)-amine], ≤ 1000 nM. As for `Cc1cc2c(cc1Nc1nc(-c3cccnc3)cs1)nc(-c1cccc(C(F)(F)F)c1)n2C` [Compound 085, [1,6-Dimethyl-2-(3-trifluoromethyl-phenyl)-1H-benzoimidazol-5-yl]-(4-pyridin-3-yl-thiazol-2-yl)-amine], the figure is ≤ 1000 nM; as for `Cc1cc2c(cc1Nc1nc(-c3cccnc3)cs1)nc(-c1cccc(OC(F)(F)F)c1)n2C` [Compound 086, [1,6-Dimethyl-2-(3-trifluoromethoxy-phenyl)-1H-benzoimidazol-5-yl]-(4-pyridin-3-yl-thiazol-2-yl)-amine], ≤ 1000 nM; as for `FC(F)c1cccc(-c2nc3cc(Nc4nc(-c5cccnc5)cs4)ccc3[nH]2)c1` [Compound 087, [2-(3-Difluoromethyl-phenyl)-1H-benzoimidazol-5-yl]-(4-pyridin-3-yl-thiazol-2-yl)-amine], ≤ 1000 nM. As for `FC(F)(F)c1cccc(-c2nc3cc(Nc4nc(-c5cccnc5)cs4)ccc3[nH]2)c1` [Compound 088, (4-Pyridin-3-yl-thiazol-2-yl)-[2-(3-trifluoromethyl-phenyl)-1H-benzoimidazol-5-yl]-amine], the 50% inhibitory concentration (IC50) is 1000 to 10000 nM.

With `FC(F)(F)Oc1cccc(-c2nc3cc(Nc4nc(-c5cccnc5)cs4)ccc3[nH]2)c1` [Compound 089, (4-Pyridin-3-yl-thiazol-2-yl)-[2-(3-trifluoromethoxy-phenyl)-1H-benzoimidazol-5-yl]-amine], the IC50 was ≤ 1000 nM. With `Cn1c(-c2cccc(C(F)F)c2)nc2cc(Nc3nc(-c4cccnc4)cs3)ccc21` [Compound 090, [2-(3-Difluoromethyl-phenyl)-1-methyl-1H-benzoimidazol-5-yl]-(4-pyridin-3-yl-thiazol-2-yl)-amine] the figure was 1000 to 10000 nM; with `Cn1c(-c2cccc(C(F)(F)F)c2)nc2cc(Nc3nc(-c4cccnc4)cs3)ccc21` [Compound 091, [1-Methyl-2-(3-trifluoromethyl-phenyl)-1H-benzoimidazol-5-yl]-(4-pyridin-3-yl-thiazol-2-yl)-amine], 1000 to 10000 nM.

The record behind these values is US10202370B2, “Benzimidazole derivatives as selective proteine kinase inhibitors” (AB SCIENCE, priority 2013, dated 2019).
